From ChEMBL document CHEMBL1201862, “PubChem BioAssay data set” (2004)
Calls of active or inactive are those of the source. No stated cut-off is given here; in the data, actives have a measured EC50 and inactives only a lower limit.

Columns and labels:
[1] = target: T1, Heat shock factor protein 1 (Mus musculus, UniProt P38532); test: HSF1 potentiators in luciferase reporter cells, confirmation, cell-based, NIH3T3, luminescence, dose retest (AID 435004); assay type: functional;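 further: stress induced by proteasome inhibitor MG132 added 30 min after compound; luciferase reporter driven by HSF1 response element in NIH3T3 cells; actives raise luminescence as potentiators of the MG132 stress response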
T1 sequence (P38532 whole entry): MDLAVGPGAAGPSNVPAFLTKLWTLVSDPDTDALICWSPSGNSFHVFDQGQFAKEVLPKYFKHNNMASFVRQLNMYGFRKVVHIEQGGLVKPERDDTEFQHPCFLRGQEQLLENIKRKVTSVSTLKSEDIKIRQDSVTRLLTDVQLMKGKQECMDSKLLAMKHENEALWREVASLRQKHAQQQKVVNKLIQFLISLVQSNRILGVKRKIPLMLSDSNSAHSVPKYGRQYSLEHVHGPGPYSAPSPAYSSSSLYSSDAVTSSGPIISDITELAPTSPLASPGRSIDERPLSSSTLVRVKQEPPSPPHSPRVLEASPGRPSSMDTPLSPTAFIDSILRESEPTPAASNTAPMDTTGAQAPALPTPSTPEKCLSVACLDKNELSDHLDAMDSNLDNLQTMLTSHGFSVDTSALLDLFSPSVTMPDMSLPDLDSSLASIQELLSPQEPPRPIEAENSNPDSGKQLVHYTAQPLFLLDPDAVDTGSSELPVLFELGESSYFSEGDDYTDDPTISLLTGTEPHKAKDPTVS

[2] = target: T2, RNA-binding protein pos-1 (Caenorhabditis elegans, UniProt G5EF15); test: inhibitors of POS-1/mex-3 RNA binding, dose response, biochemical, fluorescence polarization (AID 1964);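 further: purified POS-1 fused to maltose binding protein made in E. coli; potency of compounds blocking POS-1 binding to fluorescent RNA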
T2 sequence (G5EF15 whole entry): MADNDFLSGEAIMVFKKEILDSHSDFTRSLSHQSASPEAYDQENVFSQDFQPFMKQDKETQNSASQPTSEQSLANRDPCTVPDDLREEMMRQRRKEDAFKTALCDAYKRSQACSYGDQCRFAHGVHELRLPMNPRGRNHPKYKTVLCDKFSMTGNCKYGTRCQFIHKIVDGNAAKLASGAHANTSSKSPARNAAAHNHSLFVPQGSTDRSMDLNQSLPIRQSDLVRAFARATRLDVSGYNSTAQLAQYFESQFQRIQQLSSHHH

[3] = target: T3, Zinc finger protein mex-5 (Caenorhabditis elegans, UniProt Q9XUB2); test: MEX-5/TCR-2 RNA interaction inhibitors, dose response, biochemical, C. elegans, fluorescence polarization (AID 1960)
T3 sequence (Q9XUB2 whole entry): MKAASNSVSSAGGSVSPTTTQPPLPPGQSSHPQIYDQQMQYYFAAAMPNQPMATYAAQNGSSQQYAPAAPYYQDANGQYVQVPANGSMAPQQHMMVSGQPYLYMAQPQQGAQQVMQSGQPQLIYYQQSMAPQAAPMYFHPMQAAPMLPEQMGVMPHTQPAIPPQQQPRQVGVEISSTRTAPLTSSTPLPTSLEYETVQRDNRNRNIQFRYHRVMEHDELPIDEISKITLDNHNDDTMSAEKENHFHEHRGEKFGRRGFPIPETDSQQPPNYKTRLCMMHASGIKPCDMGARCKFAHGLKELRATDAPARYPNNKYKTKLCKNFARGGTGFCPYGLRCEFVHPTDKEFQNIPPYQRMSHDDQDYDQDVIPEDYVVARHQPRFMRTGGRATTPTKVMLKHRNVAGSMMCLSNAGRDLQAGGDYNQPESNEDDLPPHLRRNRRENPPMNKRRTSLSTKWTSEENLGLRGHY

[4] = NIH-3T3 fibroblast cytotoxicity, dose response, cytotoxicity control, cell-based, fluorescence, Alamar Blue, secondary assay (AID 2327); assay type: functional;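 further: NIH-3T3 mouse fibroblasts cultured with fluconazole at 8 µg/mL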
[5] = Luminescence Cell-Based Dose Response HTS to Identify Inhibitors of 5'UTR Stem-Loop Driven Prion Protein mRNA Translation in H4 Neuroglioblastoma Cells. [Related pubchem assays: 1827 (Project Summary), 1813 (Primary HTS)]; assay type: functional
[6] = C. albicans growth with fluconazole, confirmation, fluorescence, retest (AID 2467); assay type: functional, cell-based
[7] = inhibitors of firefly luciferase expression or activity, dose response, H4 neuroglioma cells, luminescence (AID 1990); assay type: functional, cell-based
[8] = inhibitors of SNCA 5'UTR-driven reporter translation, confirmation, H4 neuroglioma cells, luminescence (AID 1988); assay type: functional, cell-based

SMILES | EC50 [1] | EC50 [2] | EC50 [3] | further results
Clc1ccc(CNC2CCN(Cc3ccccc3)CC2)cc1 | > 260 µM (inactive) |  |  | 
O=C(NNC(=O)c1cnccn1)c1cccc([N+](=O)[O-])c1 |  | 22.1 µM (active) | 1.03 µM (active) | 
COc1cccc(CN2C(=O)C3(C(C#N)=C(N)OC4=C3C(=O)CCC4)c3ccccc32)c1 (centres undefined) |  | > 300 µM (not active) | > 300 µM (not active) | EC50 [4]: > 160 µM (inconclusive); EC50 [5]: > 120 µM (not active); EC50 [6]: 1.24 µM (active); EC50 [7]: 19.2 µM (active); EC50 [8]: 20.1 µM (active)
CSCC(C)N1CCC(n2nccc2NC(=O)CCCc2ccccc2)CC1 (centres undefined) |  | 6.99 µM (active) | 8.67 µM (active) | 
CCCc1cc(=O)oc2cc(C)c(CN3CCCC3)c(O)c12 | > 260 µM (inactive) |  |  | 
C=CCN1C(=O)S/C(=C\c2ccc(N3CCOCC3)cc2C)C1=O |  | 40.8 µM (active) | 61.3 µM (inconclusive) | 
CC(C)C(C(=O)NCc1ccccc1)N(CC1CCCO1)C(=O)CNS(=O)(=O)c1ccccc1 (centres undefined) | > 260 µM (inactive) |  |  | 
CC(=O)Nc1ccc(S(=O)(=O)NCc2nc(-c3cccc(C)c3)no2)cc1 |  | 85.6 µM (active) | > 300 µM (not active) | 
CC(C)(C)c1nn(-c2ccccc2)c2[nH]c(=O)c(CNCc3ccco3)cc12 |  | > 300 µM (not active) | > 300 µM (not active) | 
COCCNC(=O)C(c1ccc(C)cc1)N(C(=O)CCC(=O)Nc1ccccn1)c1ccccc1C (centres undefined) | > 260 µM (inactive) |  |  | 
O=C(Nc1ccc(Br)cn1)c1ccc2nccnc2c1 |  | > 300 µM (not active) | > 300 µM (not active) | 
O=S(=O)(Nc1cccc2ccccc12)c1cccc2nonc12 | > 260 µM (inactive) |  |  | 
C=CCNC(=O)CSc1nnc(C(CC)N(C)C)n1C1CCCCC1 (centres undefined) | > 260 µM (inactive) |  |  | 
CCOc1cc(N2CCOCC2)c(OCC)cc1NC(=O)Cc1cccc2ccccc12 | > 260 µM (inactive) |  |  | 
Cc1cc2c3c(c1)C1(C(=O)N3C(C)(C)CC2C)C(C#N)=C(N)OC2=C1C(=O)CC(C)(C)C2 (centres undefined) |  | > 300 µM (not active) | > 300 µM (not active) | 
CCOC(=O)c1c(C)[nH]c(C)c1S(=O)(=O)N1CCN(c2cccc(C)c2)C(C)C1 (centres undefined) | > 260 µM (inactive) |  |  | 
COc1ccc(C2/C=C\CN(S(=O)(=O)/C=C/c3ccccc3)[C@H](Cc3ccccc3)C(=O)N2Cc2ccc(F)cc2)cc1 (some centres undefined) | > 260 µM (inactive) |  |  | 
O=S(=O)(c1ccc(-n2cnnn2)cc1)N1CCNCC1 | > 260 µM (inactive) |  |  | 
COc1ccc(NS(=O)(=O)c2cc(NC(=O)c3cnccn3)ccc2N2CCCC2)cc1 | > 260 µM (inactive) |  |  | 
Cc1c(Cl)cccc1N1C(=O)NC(=O)/C(=C\c2cc(C)n(-c3cccc(C(=O)O)c3C)c2C)C1=O |  | > 300 µM (not active) | > 300 µM (not active) | 
